According to US20110172230A1, “UREA COMPOUND OR SALT THEREOF” (priority 2006, published 2011):
Structures can show the parent of a compound that is named as a salt.

molecular target: T1, FAAH (Homo sapiens, UniProt O00519); assay: Screening for an FAAH activity-inhibiting substance with human bladder epithelial cancer-derived cell line 5637 cells (IC50); assay type: cell-based; conditions: FAAH activity in human bladder epithelial cancer-derived 5637 cells, 37° C., 30 minutes
T1 construct: host or cells: 5637 human bladder epithelial cancer-derived cells, not transfected
T1 sequence (O00519 1-579): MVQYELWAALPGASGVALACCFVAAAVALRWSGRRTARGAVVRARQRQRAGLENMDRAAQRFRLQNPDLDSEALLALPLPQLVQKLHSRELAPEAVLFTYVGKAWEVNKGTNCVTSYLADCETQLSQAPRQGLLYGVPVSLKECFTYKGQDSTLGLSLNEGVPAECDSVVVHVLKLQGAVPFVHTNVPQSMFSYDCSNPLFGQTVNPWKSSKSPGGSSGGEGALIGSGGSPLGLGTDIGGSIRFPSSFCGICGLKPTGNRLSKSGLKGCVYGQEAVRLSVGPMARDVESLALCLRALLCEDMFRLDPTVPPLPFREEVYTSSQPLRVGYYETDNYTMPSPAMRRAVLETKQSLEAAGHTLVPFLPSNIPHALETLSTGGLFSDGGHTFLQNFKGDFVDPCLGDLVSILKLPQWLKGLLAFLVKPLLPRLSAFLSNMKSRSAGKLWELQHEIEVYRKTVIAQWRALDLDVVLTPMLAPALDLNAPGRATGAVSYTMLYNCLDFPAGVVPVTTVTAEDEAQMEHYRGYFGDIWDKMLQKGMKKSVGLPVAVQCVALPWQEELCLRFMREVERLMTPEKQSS
Experimental: Screening for an FAAH Activity-Inhibiting Substance with a Human Bladder Epithelial Cancer-Derived Cell
(1) Screening for an FAAH Activity Inhibiting Substance
Human bladder epithelial cancer-derived cell line 5637 cells (HTB-9; ATCC) were seeded on a 48-well cell culture plate in an amount of 1×10^5 cell/well, using 10% fetal bovine serum (HyClone)-containing RPMI1640 medium (Invitrogen Corporation). After incubated at 37° C. for 12 hours or longer, the cells were washed with 400 μl/well of a buffer (Hank's Balanced Salt Solution, 20 mM Hepes-NaOH (pH 7.4)). A test substance dissolved in DMSO was added to a substrate solution (the above buffer containing 3 μCi/ml radiolabeled anandamide (Anandamide [ethanolamine 1-^3H]) and 10 μM anandamide) so as to have a concentration from 0.003 nM to 30 nM. As a control, DMSO alone was added. 100 μl/well of the substrate solution was added to the above cells, and incubated in a CO2 incubator at 37° C. for 30 minutes. Next, the cell culture plate was transferred onto ice, and the substrate solution was removed by suction; and 75 μl/well of a cytolytic solution (the above buffer containing 0.5% Triton X-100, and 10 μM of FAAH-inhibitory activity-having compound, 3′-carbamoylbiphenyl-3-yl ester (URB597; Cayman chemical; Kathuria et al., Nature Med., Vol. 9, pp. 76-81, 2003)) was added thereto, followed by stirring. The resulting cell lysate in every well was individually transferred into a 1.5 ml sample tube, to which was added 150 μl of 1:1 (ratio by volume) chloroform/methanol solution, followed by vortexing. This was centrifuged (15000 rpm, 2 minutes), whereby the decomposed product, ethanolamine (ethanolamine 1-^3H) was separated in the upper layer (water/methanol layer) and the unreacted radiolabeled anandamide was in the lower layer (chloroform layer). 25 μl of the upper layer was transferred into a 96-well organic solvent-resistant white microplate (PicoPlate-96; Perkin Elmer, Inc.), 150 μl of Microscint-20 (Perkin Elmer, Inc.) was added thereto, and this was measured with a microplate scintillation counter (TopCount™; Beckman Coulter, Inc.). As compared with the control, the substance that gave a decreased value was selected as an FAAH activity-inhibiting substance.
(2) Measurement of the IC50 Value of the FAAH Activity Inhibiting Substance
The compound dissolved in DMSO to have a concentration of 10 mM was dissolved in the substrate solution so as to have a varying concentration from 0.003 nM to 30 nM. According to the method mentioned above, the compound was analyzed for its influence on FAAH activity. As a negative control, DMSO was used. As a positive control, URB597 was added to the substrate solution to have a concentration of 10 μM. Based on the measured value of the positive control, 0%, and on the measured value of the negative control, 100%, the IC50 value of the test substance was obtained. Furthermore, Ex represents Example No. as denoted below.

Row | IC50 [pM] | Compound
1 | 5600 | O=C(Nc1cccnc1)N1CCC(Oc2ccc(OCc3cccc(F)c3)cc2)CC1 [Example 1, 4-{4-[(3-fluorobenzyl)oxy]phenoxy}-N-(pyridin-3-yl)piperidine-1-carboxamide hydrochloride]
2 | 60 | O=C(N1CCC(Oc2ccc(OCc3cccc(F)c3)cc2)CC1)n1ccnc1 [Example 12, 4-{4-[(3-fluorobenzyl)oxy]phenoxy}-1-(1H-imidazol-1-ylcarbonyl)piperidine]
3 | 820 | O=C(c1ccc(OCc2cccc(F)c2)cc1)C1CCN(C(=O)Nc2cccnc2)CC1 [Example 59]
4 | 810 | O=C(c1ccc(OCCC2CCCCC2)cc1)C1CCN(C(=O)Nc2cccnc2)CC1 [Example 75]
5 | 220 | O=C(Cc1ccc(OCc2cccc(F)c2)cc1)N1CCN(C(=O)Nc2cccnc2)CC1 [Example 136]
6 | 330 | O=C(Nc1ccc(-n2cccn2)nc1)N1CCN(C(=O)c2cccc(OCCC3CCCCC3)c2)CC1 [Example 156]
7 | 290 | Nc1ccnn1C(=O)N1CCN(C(=O)c2cccc(OCCC3CCCCC3)c2)CC1 [Example 159]
8 | 210 | CC(=O)Nc1ccc(NC(=O)N2CCN(C(=O)c3cccc(OCCC4CCCCC4)c3)CC2)cn1 [Example 179]
9 | 160 | O=C(c1ccc(OCc2cccc(F)c2)cc1)N1CCN(C(=O)n2ccnc2)CC1 [Example 300]
10 | 570 | CCCCCCOc1ccc(C(=O)N2CCN(C(=O)Nc3cccnc3)CC2)cc1 [Example 317]
11 | 240 | O=C(Nc1cccnc1)N1CCN(C(=O)c2cccc(OCC3CCCCC3)c2)CC1 [Example 320]
12 | 540 | CN(Cc1cccc(F)c1)c1ccc(C(=O)N2CCN(C(=O)Nc3cccnc3)CC2)cc1 [Example 322]
13 | 80 | O=C(Nc1cccnc1)N1CCN(Cc2cccc(OCCC3CCCCC3)c2)CC1 [Example 388]
14 | 120 | O=C(Nc1cccnc1)N1CCN(C(=O)c2cccc(OCCc3ccccc3)c2)CC1 [Example 426]
15 | 850 | O=C(Nc1nccnc1Cl)N1CCC(Oc2cccc(OCCC3CCCCC3)c2)CC1 [Example 488]
